This test is described as follows: MIC of test compounds against various organisms. It is filed as cell-based. The procedure: The MIC (μg/ml) of test compounds against various organisms was determined including: S. epidermidis CL7, S. aureus WCUH29, S. pneumoniae 1629, S. pyogenes CN10, H. influenzae ATCC 49247, E.faecalis 2, M. catarrhalis Ravasio, E. coli 7623.
Setting [1] is: versus all these organisms (the eight strains of b406), read-out: MIC.
The mark [2] stands for this setting: versus some of these organisms (of the eight strains; which ones not given), read-out: MIC.

Counter-ions that a name gives are not always drawn. Like-named read-outs stand apart in the source and are kept apart here. Bounds are passed on as bounds.

In general, MIC refers to the least concentration at which growth counts as inhibited.

For the molecule `COc1ccc2nccc(NC(=O)[C@]3(O)C=C[C@@H](NCc4ccc5c(n4)NC(=O)CS5)CC3)c2n1` (racemic) [Example 1, (1R,4S)-1-Hydroxy-4-[(3-oxo-3,4-dihydro-2H-pyrido[3,2-b][1,4]thiazin-6-ylmethyl)-amino]-cyclohex-2-enecarboxylic acid (6methoxy-[1,5]naphthyridin-4-yl)-amide dihydrochloride and (1S,4R)-1-Hydroxy-4-[(3-oxo-3,4-dihydro-2H-pyrido[3,2-b][1,4]thiazin-6-ylmethyl)-amino]-cyclohex-2-enecarboxylic acid (6-methoxy-[1,5]naphthyridin-4-yl)-amide dihydrochloride], the MIC was no more than 2 µg/mL. On to `COc1ccc2nccc(NC(=O)[C@]3(O)C=C[C@@H](NCc4ccc5c(n4)NC(=O)CO5)CC3)c2n1` (racemic) [Example 2, (1R,4S)-1-Hydroxy-4-[(3-oxo-3,4-dihydro-2H-pyrido[3,2-b][1,4]oxazin-6-ylmethyl)-amino]-cyclohex-2-enecarboxylic acid (6-methoxy-[1,5]naphthyridin-4-yl)-amide dihydrochloride and (1S,4R)-1-Hydroxy-4-[(3-oxo-3,4-dihydro-2H-pyrido[3,2-b][1,4]oxazin-6-ylmethyl)-amino]-cyclohex-2-enecarboxylic acid (6-methoxy-[1,5]naphthyridin-4-yl)-amide dihydrochloride], for which the MIC is no more than 2 µg/mL. As to `COc1ccc2nccc(NC(=O)[C@@]3(O)C=C[C@H](NCc4cc5c(cn4)OCCO5)CC3)c2n1` [Example 3], under setting [1], the MIC was no more than 2 µg/mL. Turning to `COc1ccc2nccc(NC(=O)[C@@]3(O)C=C[C@H](NCc4cnc5c(c4)OCCO5)CC3)c2n1` [Example 5], the MIC under setting [1] is no more than 2 µg/mL. With `COc1ccc2nccc(NC(=O)[C@@]3(O)C=C[C@H](NCc4ccc5c(n4)OCCO5)CC3)c2n1` [Example 6], under setting [2], the MIC was no more than 1 µg/mL. The same measure, in the same setting: then `COc1ccc2nccc(NC(=O)[C@@]3(O)C=C[C@H](NCc4ncc5c(n4)OCCO5)CC3)c2n1` [Example 7], with no more than 1 µg/mL. Same read-out and setting: then `COCCOc1c(F)ccc2nccc(NC(=O)[C@@]3(O)C=C[C@H](NCc4cc5c(cn4)OCCO5)CC3)c12` [Example 11], with no more than 1 µg/mL. `COc1ccc2nccc(NC(=O)[C@@]3(O)C=C[C@H](NCc4cc5c(cn4)OCCO5)CC3)c2c1F` [Example 12]: the MIC under setting [2] is no more than 1 µg/mL.

These data come from patent US20060040925A1, “Aminocyclohexene quinolines and their azaisosteric analogues with antibacterial activity” (priority 2002, published 2006).
